Measured values from ChEMBL document CHEMBL4811228, “Design, Synthesis, and Activity Evaluation of Novel Acyclic Nucleosides as Potential Anticancer Agents In Vitro and In Vivo” (J Med Chem, 2021).
pIC50: −log10 of the molar value. Active and inactive are the calls of the source. No cut-off for these calls is given here.

Tests used:
SW480 [1] = experiment: Induction of mitochondrial membrane potential loss in human SW480 cells assessed as cells with high MMP emitting red fluorescence at 4 uM incubated for 24 hrs by JC-1 staining based flow cytometry (reference value: 64.2%); type: functional
SW480 [2] = experiment: Induction of mitochondrial membrane potential loss in human SW480 cells assessed as cells with high MMP emitting red fluorescence at 8 uM incubated for 24 hrs by JC-1 staining based flow cytometry (reference value: 64.2%); type: functional
HCT-116 [3] = experiment: Antiproliferative activity against human HCT-116 cells assessed as reduction in cell viability incubated for 48 hrs by MTT assay; type: functional, cell-based; settings: HCT-116, 48 h
SW480 [4] = experiment: Induction of apoptosis in human SW480 cells assessed as viable cells at 32 uM incubated for 48 hrs by Annexin V-FITC/PI staining based flow cytometry (reference value: 90.56%); type: functional; settings: read-out: Activity
SW480 [5] = experiment: Induction of apoptosis in human SW480 cells assessed as early apoptotic cells at 16 uM incubated for 48 hrs by Annexin V-FITC/PI staining based flow cytometry (reference value: 1.87%); type: functional
SW480 [6] = experiment: Induction of apoptosis in human SW480 cells assessed as late apoptotic cells at 32 uM incubated for 48 hrs by Annexin V-FITC/PI staining based flow cytometry (reference value: 4.67%); type: functional
[7] = Acute toxicity in BALB/c mouse assessed as animal survival at 150 mg/kg, ip administered per 4 hrs for 4 times and measured everyday for 14 days (Rb =100%); type: organism-based; settings: in vivo, time 14 day
[8] = Half life in mouse liver microsomes at 0.1 uM preincubated for 10 mins followed by NADPH addition and measured up to 60 mins by LC-MS/MS analysis; type: ADME, Microsome; settings: time 70 min
[9] = Toxicity in BALB/c mouse xenografted with human SW480 cells assessed as decrease in body weight at 25 to 50 mg/kg, ip administered every 2 days for 12 days; type: organism-based; settings: in vivo, 288 h, dose 25-50 mg/kg, time 12 day
[10] = Acute toxicity in ip dosed BALB/c mouse administered per 4 hrs for 4 times and measured everyday for 14 days; type: organism-based; settings: in vivo, time 14 day
HCT-116 [11] = experiment: Potency index, ratio of 5-FU IC50 to test compound IC50 for antiproliferative activity against human HCT-116 cells; type: functional
SW480 [12] = experiment: Inhibition of colony formation in human SW480 cells at 2 to 8 uM incubated for 48 hrs followed by culture medium replenishment for every 72 hrs and measured after 14 days by crystal violet staining based analysis; type: functional, cell-based; settings: dose 2-8 µM, time 14.0 day
[13] = Acute toxicity in BALB/c mouse assessed as animal survival at 300 mg/kg, ip administered per 4 hrs for 4 times and measured everyday for 14 days (reference value: 100%); type: organism-based; settings: in vivo, time 14 day
SW480 [14] = experiment: Induction of apoptosis in human SW480 cells assessed as necrotic cells at 4 uM incubated for 48 hrs by Annexin V-FITC/PI staining based flow cytometry (reference value: 2.9%); type: functional
HCT-116 [15] = experiment: Inhibition of colony formation in human HCT-116 cells at 2 to 8 uM incubated for 48 hrs followed by culture medium replenishment for every 72 hrs and measured after 14 days by crystal violet staining based analysis; type: functional, cell-based; settings: dose 2-8 µM, time 14.0 day
SW480 [16] = experiment: Induction of apoptosis in human SW480 cells assessed as late apoptotic cells at 8 uM incubated for 48 hrs by Annexin V-FITC/PI staining based flow cytometry (reference value: 4.67%); type: functional
SW480 [17] = experiment: Induction of apoptosis in human SW480 cells assessed as necrotic cells at 16 uM incubated for 48 hrs by Annexin V-FITC/PI staining based flow cytometry (reference value: 2.9%); type: functional
SW480 [18] = experiment: Induction of apoptosis in human SW480 cells assessed as increase in cleaved PARP protein expression at 2 to 16 uM incubated for 48 hrs by western blot analysis; type: functional, cell-based; settings: dose 2-16 µM
[19] = Half life in human liver microsomes at 0.1 uM preincubated for 10 mins followed by NADPH addition and measured up to 60 mins by LC-MS/MS analysis; type: ADME, Microsome; settings: time 70 min
SW480 [20] = experiment: Induction of apoptosis in human SW480 cells assessed as viable cells at 4 uM incubated for 48 hrs by Annexin V-FITC/PI staining based flow cytometry (reference value: 90.56%); type: functional; settings: read-out: Activity
SW480 [21] = experiment: Induction of apoptosis in human SW480 cells assessed as increase in p53 protein expression at 2 to 16 uM incubated for 48 hrs by western blot analysis; type: functional, cell-based; settings: dose 2-16 µM
[22] = Acute toxicity in BALB/c mouse assessed as animal survival at 100 mg/kg, ip administered per 4 hrs for 4 times and measured everyday for 14 days (Rb =100%); type: organism-based; settings: in vivo, time 14 day
SW480 [23] = experiment: Induction of apoptosis in human SW480 cells assessed as necrotic cells at 32 uM incubated for 48 hrs by Annexin V-FITC/PI staining based flow cytometry (reference value: 2.9%); type: functional
SW480 [24] = experiment: Induction of apoptosis in human SW480 cells assessed as early apoptotic cells at 32 uM incubated for 48 hrs by Annexin V-FITC/PI staining based flow cytometry (reference value: 1.87%); type: functional
SW480 [25] = experiment: Antitumor activity against human SW480 cells xenografted in ip dosed BALB/c mouse assessed as reduction in tumor weight administered every 2 days for 12 days; type: functional, organism-based; settings: dose 25-50 mg/kg, time 12.0 day
SW480 [26] = experiment: Antiproliferative activity against human SW480 cells assessed as reduction in cell viability incubated for 48 hrs by MTT assay; type: functional, cell-based; settings: SW480, 48 h
SW480 [27] = experiment: Induction of apoptosis in human SW480 cells assessed as necrotic cells at 8 uM incubated for 48 hrs by Annexin V-FITC/PI staining based flow cytometry (reference value: 2.9%); type: functional
SW480 [28] = experiment: Induction of apoptosis in human SW480 cells assessed as necrotic cells at 2 uM incubated for 48 hrs by Annexin V-FITC/PI staining based flow cytometry (reference value: 2.9%); type: functional
SW480 [29] = experiment: Induction of apoptosis in human SW480 cells assessed as viable cells at 8 uM incubated for 48 hrs by Annexin V-FITC/PI staining based flow cytometry (reference value: 90.56%); type: functional; settings: read-out: Activity
SW480 [30] = experiment: Induction of mitochondrial membrane potential loss in human SW480 cells assessed as cells with low MMP emitting green fluorescence at 4 uM incubated for 24 hrs by JC-1 staining based flow cytometry (reference value: 17.96%); type: functional
SW480 [31] = experiment: Induction of apoptosis in human SW480 cells assessed as reduction in Bcl-xl protein expression at 2 to 16 uM incubated for 48 hrs by western blot analysis; type: functional, cell-based; settings: dose 2-16 µM
SW480 [32] = experiment: Induction of mitochondrial membrane potential loss in human SW480 cells assessed as cells with low MMP emitting green fluorescence at 2 uM incubated for 24 hrs by JC-1 staining based flow cytometry (reference value: 17.96%); type: functional
SW480 [33] = experiment: Induction of mitochondrial membrane potential loss in human SW480 cells assessed as cells with high MMP emitting red fluorescence at 2 uM incubated for 24 hrs by JC-1 staining based flow cytometry (reference value: 64.2%); type: functional
SW480 [34] = experiment: Potency index, ratio of 5-FU IC50 to test compound IC50 for antiproliferative activity against human SW480 cells; type: functional
SW480 [35] = experiment: Induction of apoptosis in human SW480 cells at 4 to 8 uM pretreated with pan-caspase inhibitor, Q-VD-OPh followed by incubation with compound for 48 hrs by Annexin V-FITC/PI staining based flow cytometry; type: functional, cell-based; settings: dose 4-8 µM

## CCCCCCCCCC(CCO)n1cnc2c(Cl)ncnc21 (racemic)
SW480 [1]
  Activity: 33.67%
SW480 [2]
  Activity: 31.56%
HCT-116 [3]
  pIC50: 6.05
SW480 [4]
  viability at 32 µM: 26.8%
SW480 [5]
  Activity: 24.5%
SW480 [6]
  Activity: 13.76%
[7]
  survival at 336 h: 100%
[8]
  half-life at 0.1 µM: 1 min
[9]
  Activity: Non-Toxic
[10]
  LD50 at 336 h: 220 mg/kg
HCT-116 [11]
  Ratio IC50: 10
SW480 [12]
  inhibition: Active
[13]
  survival at 336 h: 0%
SW480 [14]
  Activity: 7.76%
HCT-116 [15]
  inhibition: Active
SW480 [16]
  Activity: 15.47%
SW480 [17]
  Activity: 11.01%
SW480 [18]
  Activity: Active
[19]
  half-life at 0.1 µM: 10.8 min
SW480 [20]
  viability at 4 µM: 71.5%
SW480 [21]
  Activity: Active
[22]
  survival at 336 h: 100%
SW480 [23]
  Activity: 3.89%
SW480 [24]
  Activity: 55.55%
SW480 [25]
  Activity: Dose-Dependent Effect
SW480 [26]
  pIC50: 5.94
SW480 [27]
  Activity: 16.97%
SW480 [28]
  Activity: 9.2%
SW480 [29]
  viability at 8 µM: 56.5%
SW480 [30]
  Activity: 33.02%
SW480 [31]
  Activity: Active
SW480 [32]
  Activity: 28.88%
SW480 [33]
  Activity: 47.58%
SW480 [34]
  Ratio IC50: 10
SW480 [35]
  Activity: Active
